# From patent US10807970B2 (priority 2016, dated 2020)
# Biological target: human σ1 receptor (Homo sapiens, UniProt Q99720)
# Test: Human σ1 receptor radioligand assay ([3H](+)-pentazocine, transfected HEK-293 membranes)
# Type: binding
# Design: μ and σ1 dual binding: key to the marks not given beside the values
# Details: one class symbol for both Ki-σ1 (human σ1 receptor, A1) and Ki-μ (human μ-opioid receptor, A2)
# In short: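 Membranes from HEK-293 cells transfected with human σ1 receptor (7 μg) incubated with 5 nM [3H](+)-pentazocine in 50 mM Tris-HCl pH 8, 120 min at 37° C. Non-specific binding defined with 10 μM haloperidol. Bound radioligand separated by filtration, washed with ice-cold 10 mM Tris-HCl pH 7.4, and counted by scintillation.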
# Chain of human σ1 receptor (Q99720 whole entry): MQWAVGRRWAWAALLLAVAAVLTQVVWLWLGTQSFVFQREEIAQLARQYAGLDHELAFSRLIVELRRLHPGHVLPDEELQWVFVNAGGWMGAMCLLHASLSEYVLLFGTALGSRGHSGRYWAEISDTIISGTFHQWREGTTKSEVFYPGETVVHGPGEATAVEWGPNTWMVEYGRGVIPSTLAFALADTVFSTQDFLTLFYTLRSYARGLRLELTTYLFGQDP
row,Compound,μ and σ1 dual binding
1,"C[C@@H]1C[C@](C(=O)c2ccccn2)(N2CCN(CCc3ccccc3)CC2)CCO1 [Example 240, ((2R,4R)-2-methyl-4-(4-phenethylpiperazin-1-yl)tetrahydro-2H-pyran-4-yl)(pyridin-2-yl)methanone]",++
2,"CC(C)OCCN1CCN([C@]2(C(=O)c3ccccn3)CCOC2)CC1 [Example 242, (R)-(3-(4-(2-isopropoxyethyl)piperazin-1-yl)tetrahydrofuran-3-yl)(pyridin-2-yl)methanone]",++
3,"CC(C)OCCN1CCN([C@@]2(C(=O)c3ccccn3)CCOC2)CC1 [Example 243, (S)-(3-(4-(2-isopropoxyethyl)piperazin-1-yl)tetrahydrofuran-3-yl)(pyridin-2-yl)methanone]",++
4,"CC(C)OCCN1CCC([C@]2(C(=O)c3ccccn3)CCOC(C)(C)C2)CC1 [Example 244, (S)-(4-(1-(2-isopropoxyethyl)piperidin-4-yl)-2,2-dimethyltetrahydro-2H-pyran-4-yl)(pyridin-2-yl)methanone]",++
5,"CC(C)OCCN1CCC([C@@]2(C(=O)c3ccccn3)CCOC(C)(C)C2)CC1 [Example 245, (R)-(4-(1-(2-isopropoxyethyl)piperidin-4-yl)-2,2-dimethyltetrahydro-2H-pyran-4-yl)(pyridin-2-yl)methanone]",++
6,"CC(C)CCN1CCN([C@@]2(C(=O)c3ccccn3)CCO[C@@H](C)C2)CC1 [Example 247, ((2S,4S)-4-(4-isopentylpiperazin-1-yl)-2-methyltetrahydro-2H-pyran-4-yl)(pyridin-2-yl)methanone]",++
7,"CC(C)OCCN1CCC([C@]2(C(=O)c3ccccn3)CCO[C@H](C)C2)CC1 [Example 249, ((2R,4S)-4-(1-(2-isopropoxyethyl)piperidin-4-yl)-2-methyltetrahydro-2H-pyran-4-yl)(pyridin-2-yl)methanone]",++

# Same assay, conditions: one class symbol for both Ki-σ1 (human σ1 receptor, A1) and Ki-μ (human μ-opioid receptor, A2); read-out: μ and σ1 dual binding
row,Compound,Ki [nM]
1,"O=C(c1ccccn1)C1(N2CCN(Cc3ccc(OC(F)(F)F)cc3)CC2)CCOCC1 [Example 194, pyridin-2-yl(4-(4-(4-(trifluoromethoxy)benzyl)piperazin-1-yl)tetrahydro-2H-pyran-4-yl)methanone]",> 500
2,"COc1ccc(CN2CCN(C3(C(=O)c4ccccn4)CCOCC3)CC2)cc1 [Example 195, (4-(4-(4-methoxybenzyl)piperazin-1-yl)tetrahydro-2H-pyran-4-yl)(pyridin-2-yl)methanone]",> 500
3,"COc1ccc(CN2CCN(C3(C(=O)c4ccccn4)CCOCC3)CC2)cc1F [Example 196, (4-(4-(3-fluoro-4-methoxybenzyl)piperazin-1-yl)tetrahydro-2H-pyran-4-yl)(pyridin-2-yl)methanone]",> 500
4,"O=C(c1ccccn1)C1(N2CCN(Cc3ccc(F)c(F)c3)CC2)CCOCC1 [Example 197, (4-(4-(3,4-difluorobenzyl)piperazin-1-yl)tetrahydro-2H-pyran-4-yl)(pyridin-2-yl)methanone]",> 500
5,"COc1cc(CN2CCN(C3(C(=O)c4ccccn4)CCOCC3)CC2)ccc1F [Example 198, (4-(4-(4-fluoro-3-methoxybenzyl)piperazin-1-yl)tetrahydro-2H-pyran-4-yl)(pyridin-2-yl)methanone]",> 500
6,"C[C@H]1C[C@@](C(=O)c2ccccn2)(N2CCN(CCc3ccccc3)CC2)CCO1 [Example 241, ((2S,4S)-2-methyl-4-(4-phenethylpiperazin-1-yl)tetrahydro-2H-pyran-4-yl)(pyridin-2-yl)methanone]",< 500
7,"CC(C)CCN1CCN([C@]2(C(=O)c3ccccn3)CCO[C@H](C)C2)CC1 [Example 246, ((2R,4R)-4-(4-isopentylpiperazin-1-yl)-2-methyltetrahydro-2H-pyran-4-yl)(pyridin-2-yl)methanone]",< 500
8,"CC[C@@]1(N2CCN(Cc3ccc(C#N)cc3)CC2)CCO[C@@H](C)C1 [Example 250, 4-((4-((2S,4R)-4-ethyl-2-methyltetrahydro-2H-pyran-4-yl)piperazin-1-yl)methyl)benzonitrile]",> 500
9,"CC[C@]1(N2CCN(Cc3ccc(C#N)cc3)CC2)CCO[C@H](C)C1 [Example 251, 4-((4-((2R,4S)-4-ethyl-2-methyltetrahydro-2H-pyran-4-yl)piperazin-1-yl)methyl)benzonitrile]",> 500

# Same assay, conditions: μ and σ1 dual binding, one class symbol for both Ki-σ1 (human σ1 receptor, A1) and Ki-μ (human μ-opioid receptor, A2)
row,Compound,Ki [nM]
1,"CC(C)OCCN1CCC([C@@]2(C(=O)c3ccccn3)CCO[C@@H](C)C2)CC1 [Example 248, ((2S,4R)-4-(1-(2-isopropoxyethyl)piperidin-4-yl)-2-methyltetrahydro-2H-pyran-4-yl)(pyridin-2-yl)methanone]",< 500
